Laboratory results as given in ChEMBL document CHEMBL3862012, “Methylene versus carbonyl bridge in the structure of new tubulin polymerization inhibitors with tricyclic A-rings” (Bioorg Med Chem, 2016).

How the values were obtained:
[1] = Cytotoxicity against human Hs 578T cells assessed as growth inhibition at 10 uM after 48 hrs by SRB assay relative to control; type: functional; conditions: read-out: GI
[2] = Cytotoxicity against human MDA-MB-468 cells assessed as growth inhibition at 10 uM after 48 hrs by SRB assay relative to control; type: functional; conditions: MDA-MB-468, 48 h, read-out: GI
[3] = Cytotoxicity against human MALME-3M cells assessed as growth inhibition at 10 uM after 48 hrs by SRB assay relative to control; type: functional; conditions: read-out: GI
[4] = Cytotoxicity against human OVCAR5 cells assessed as growth inhibition at 10 uM after 48 hrs by SRB assay relative to control; type: functional; conditions: OVCAR-5, 48 h, read-out: GI
[5] = Cytotoxicity against human SF268 cells assessed as growth inhibition at 10 uM after 48 hrs by SRB assay relative to control; type: functional; conditions: SF-268, 48 h, read-out: GI
[6] = Cytotoxicity against human NCI-H460 cells assessed as growth inhibition at 10 uM after 48 hrs by SRB assay relative to control; type: functional; conditions: NCI-H460, 48 h, read-out: GI
Ovis aries = organism: Ovis aries; assay: Inhibition of sheep brain tubulin polymerization at 100 uM by DAPI staining-based fluorimetric method relative to control
[7] = Cytotoxicity against human NCI-H226 cells assessed as growth inhibition at 10 uM after 48 hrs by SRB assay relative to control; type: functional; conditions: NCI-H226, 48 h, read-out: GI
[8] = Cytotoxicity against human 786-0 cells assessed as growth inhibition at 10 uM after 48 hrs by SRB assay relative to control; type: functional; conditions: 786-0, 48 h, read-out: GI
[9] = Cytotoxicity against human UO31 cells assessed as growth inhibition at 10 uM after 48 hrs by SRB assay relative to control; type: functional; conditions: UO-31, 48 h, read-out: GI
[10] = Cytotoxicity against human HT-29 cells assessed as growth inhibition at 10 uM after 48 hrs by SRB assay relative to control; type: functional; conditions: HT-29, 48 h, read-out: GI
[11] = Cytotoxicity against human EKVX cells assessed as growth inhibition at 10 uM after 48 hrs by SRB assay relative to control; type: functional; conditions: read-out: GI
[12] = Cytotoxicity against human Caki1 cells assessed as growth inhibition at 10 uM after 48 hrs by SRB assay relative to control; type: functional; conditions: CAKI-1, 48 h, read-out: GI
[13] = Cytotoxicity against human SF295 cells assessed as growth inhibition at 10 uM after 48 hrs by SRB assay relative to control; type: functional; conditions: SF-295, 48 h, read-out: GI
[14] = Cytotoxicity against human NCI-H322M cells assessed as growth inhibition at 10 uM after 48 hrs by SRB assay relative to control; type: functional; conditions: read-out: GI
[15] = Cytotoxicity against human HOP92 cells assessed as growth inhibition at 10 uM after 48 hrs by SRB assay relative to control; type: functional; conditions: HOP-92, 48 h, read-out: GI
[16] = Cytotoxicity against human SK-MEL-5 cells assessed as growth inhibition after 48 hrs by SRB assay; type: functional; conditions: SK-MEL-5, 48 h
[17] = Cytotoxicity against human BT549 cells assessed as growth inhibition after 48 hrs by SRB assay; type: functional; conditions: BT-549, 48 h
[18] = Cytotoxicity against human HCC2998 cells assessed as growth inhibition after 48 hrs by SRB assay; type: functional; conditions: HCC 2998, 48 h
[19] = Cytotoxicity against human DU145 cells assessed as growth inhibition after 48 hrs by SRB assay; type: functional; conditions: DU-145, 48 h
[20] = Cytotoxicity against human SF268 cells assessed as growth inhibition after 48 hrs by SRB assay; type: functional; conditions: SF-268, 48 h
[21] = Cytotoxicity against human Hs 578T cells assessed as growth inhibition after 48 hrs by SRB assay; type: functional
[22] = Cytotoxicity against human K562 cells assessed as growth inhibition after 48 hrs by SRB assay; type: functional; conditions: K562, 48 h
[23] = Cytotoxicity against human SR cells assessed as growth inhibition after 48 hrs by SRB assay; type: functional
[24] = Cytotoxicity against human NCI-H460 cells assessed as growth inhibition after 48 hrs by SRB assay; type: functional; conditions: NCI-H460, 48 h
[25] = Cytotoxicity against human OVCAR3 cells assessed as growth inhibition after 48 hrs by SRB assay; type: functional; conditions: OVCAR-3, 48 h
[26] = Cytotoxicity against human ACHN cells assessed as growth inhibition after 48 hrs by SRB assay; type: functional
[27] = Cytotoxicity against human OVCAR5 cells assessed as growth inhibition after 48 hrs by SRB assay; type: functional; conditions: OVCAR-5, 48 h
[28] = Cytotoxicity against human SN12C cells assessed as growth inhibition after 48 hrs by SRB assay; type: functional
[29] = Cytotoxicity against human IGROV1 cells assessed as growth inhibition after 48 hrs by SRB assay; type: functional; conditions: IGROV-1, 48 h
[30] = Cytotoxicity against human COLO205 cells assessed as growth inhibition after 48 hrs by SRB assay; type: functional; conditions: COLO 205, 48 h
[31] = Cytotoxicity against human NCI-H522 cells assessed as growth inhibition after 48 hrs by SRB assay; type: functional; conditions: NCI-H522, 48 h
[32] = Cytotoxicity against human A498 cells assessed as growth inhibition at 10 uM after 48 hrs by SRB assay relative to control; type: functional; conditions: A498, 48 h, read-out: GI
[33] = Cytotoxicity against human SKOV3 cells assessed as growth inhibition after 48 hrs by SRB assay; type: functional; conditions: SK-OV-3, 48 h
[34] = Cytotoxicity against human SW620 cells assessed as growth inhibition after 48 hrs by SRB assay; type: functional; conditions: SW-620, 48 h
[35] = Cytotoxicity against human NCI-ADR-RES cells assessed as growth inhibition after 48 hrs by SRB assay; type: functional
[36] = Cytotoxicity against human LOXIMVI cells assessed as growth inhibition after 48 hrs by SRB assay; type: functional; conditions: LOX IMVI
[37] = Cytotoxicity against human HCT15 cells assessed as growth inhibition after 48 hrs by SRB assay; type: functional; conditions: HCT-15, 48 h
[38] = Cytotoxicity against human RXF393 cells assessed as growth inhibition after 48 hrs by SRB assay; type: functional; conditions: RXF 393, 48 h
[39] = Cytotoxicity against human SK-MEL-2 cells assessed as growth inhibition after 48 hrs by SRB assay; type: functional; conditions: SK-MEL-2, 48 h
[40] = Cytotoxicity against human M14 cells assessed as growth inhibition after 48 hrs by SRB assay; type: functional; conditions: M14, 48 h
[41] = Cytotoxicity against human SK-MEL-5 cells assessed as growth inhibition at 10 uM after 48 hrs by SRB assay relative to control; type: functional; conditions: SK-MEL-5, 48 h, read-out: GI
[42] = Cytotoxicity against human SK-MEL-28 cells assessed as growth inhibition after 48 hrs by SRB assay; type: functional; conditions: SK-MEL-28, 48 h
[43] = Cytotoxicity against human KM12 cells assessed as growth inhibition after 48 hrs by SRB assay; type: functional; conditions: KM12, 48 h

COc1ccc(CN2c3ccccc3Oc3ccccc32)cc1O
inhibition of growth at 10 µM [1]: 69% | inhibition of growth at 10 µM [2]: 93% | inhibition of growth at 10 µM [3]: 55% | inhibition of growth at 10 µM [4]: 9% | inhibition of growth at 10 µM [5]: 43% | inhibition of growth at 10 µM [6]: 87% | inhibition (Ovis aries): 4% | inhibition of growth at 10 µM [7]: 6% | inhibition of growth at 10 µM [8]: 57% | inhibition of growth at 10 µM [9]: 68% | inhibition of growth at 10 µM [10]: 17% | inhibition of growth at 10 µM [11]: 65% | inhibition of growth at 10 µM [12]: 61% | inhibition of growth at 10 µM [13]: 86% | inhibition of growth at 10 µM [14]: 44% | inhibition of growth at 10 µM [15]: 67%

COc1ccc(CN2c3ccccc3Sc3ccccc32)c(C(F)(F)F)c1
inhibition of growth at 10 µM [1]: 77% | GI50 [16]: 500 nM | GI50 [17]: 3120 nM | inhibition of growth at 10 µM [2]: 81% | GI50 [18]: 2000 nM | GI50 [19]: 2080 nM | GI50 [20]: 10900 nM | inhibition of growth at 10 µM [3]: 7% | GI50 [21]: 877 nM | GI50 [22]: 395 nM | inhibition of growth at 10 µM [4]: 35% | GI50 [23]: 483 nM | GI50 [24]: 456 nM | inhibition of growth at 10 µM [5]: 44% | GI50 [25]: 513 nM | GI50 [26]: 666 nM | GI50 [27]: 9750 nM | inhibition of growth at 10 µM [6]: 90% | GI50 [28]: 9730 nM | GI50 [29]: 3430 nM | inhibition (Ovis aries): 15% | GI50 [30]: 640 nM | GI50 [31]: 314 nM | inhibition of growth at 10 µM [32]: 96% | inhibition of growth at 10 µM [7]: 42% | inhibition of growth at 10 µM [8]: 58% | GI50 [33]: 5570 nM | inhibition of growth at 10 µM [9]: 54% | GI50 [34]: 443 nM | GI50 [35]: 462 nM | GI50 [36]: 832 nM | inhibition of growth at 10 µM [10]: 98% | inhibition of growth at 10 µM [11]: 50% | GI50 [37]: 489 nM | GI50 [38]: 380 nM | inhibition of growth at 10 µM [12]: 67% | inhibition of growth at 10 µM [13]: 98% | inhibition of growth at 10 µM [14]: 51% | inhibition of growth at 10 µM [15]: 61% | GI50 [39]: 1180 nM | GI50 [40]: 446 nM

COc1ccc(CN2c3ccccc3Sc3ccccc32)c(F)c1
inhibition of growth at 10 µM [1]: 78% | inhibition of growth at 10 µM [2]: 98% | GI50 [18]: 5060 nM | inhibition of growth at 10 µM [41]: 74% | inhibition of growth at 10 µM [3]: 43% | GI50 [22]: 38 nM | inhibition of growth at 10 µM [4]: 50% | GI50 [23]: 60 nM | inhibition of growth at 10 µM [5]: 48% | GI50 [27]: 4390 nM | inhibition of growth at 10 µM [6]: 89% | GI50 [28]: 10600 nM | GI50 [42]: 5050 nM | GI50 [29]: 46 nM | GI50 [43]: 43 nM | inhibition (Ovis aries): 7% | inhibition of growth at 10 µM [32]: 100% | inhibition of growth at 10 µM [7]: 44% | inhibition of growth at 10 µM [8]: 58% | inhibition of growth at 10 µM [9]: 57% | GI50 [34]: 36 nM | inhibition of growth at 10 µM [10]: 96% | inhibition of growth at 10 µM [11]: 49% | GI50 [37]: 38 nM | inhibition of growth at 10 µM [12]: 78% | inhibition of growth at 10 µM [13]: 92% | inhibition of growth at 10 µM [14]: 55% | inhibition of growth at 10 µM [15]: 67% | GI50 [40]: 38 nM
